In ChEMBL document CHEMBL1201862, “PubChem BioAssay data set” (2004):
Activity calls are given as the source filed them. For most assays here, no stated cut-off is given here; in the data, actives have a measured EC50 and inactives only a lower limit.

How the values were obtained:
[1] = Luminescence Cell-Based Dose Response HTS to Identify Activators of Luciferase Translation or Activity in H4 […] Cells. [Related pubchem assays: 1829 (Project Summary), 1814 (Primary HTS)]; assay type: functional
[2] = system: H4; experiment: Luminescence Cell-Based Dose Response HTS to Identify Activators of 5'UTR Stem-Loop Driven Prion Protein mRNA Translation in H4 Neuroglioblastoma Cells. [Related pubchem assays: 1829 (Project Summary), 1814 (Primary HTS)]; assay type: functional; details: Homo sapiens
[3] = Luminescence Cell-Based Dose Confirmation HTS to Identify Activators of 5'UTR Stem-Loop Driven Alpha-Synuclein mRNA Translation in H4 Neuroglioblastoma Cells. [Related pubchem assays: 1829 (Project Summary), 1814 (Primary HTS)]; assay type: functional
[4] = cytotoxicity toward NIH3T3 fibroblasts, dose response, counter-screen, cell-based, ATP luminescence, mouse fibroblasts (AID 2010); assay type: functional;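 further: cells exposed to compound for about 90 hours before reading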
[5] = inhibitors of intracellular T. cruzi replication, confirmation, NIH3T3 host cells, beta-gal luminescence (AID 2044); assay type: functional, cell-based;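 further: intracellular parasites grown in NIH/3T3 mouse fibroblasts as host cells; luminescent beta-galactosidase reporter signal from transgenic T. cruzi replicating inside host cells; inhibitors lower the luminescence signal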
[6] = molecular target: Cytochrome P450 2C9 (Homo sapiens, UniProt P11712)
[7] = molecular target: Cytochrome P450 3A4 (Homo sapiens, UniProt P08684);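 further: CYP3A4 tested as one member of a cytochrome P450 panel screen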
[8] = system: Streptococcus sp. 'group A'; experiment: growth inhibition of control SK(-) GAS strain, dose response, counter-screen for streptokinase expression inhibitor project, luminescence, kanamycin, BacTiterGlo, confirmation (AID 1900); assay type: functional, organism-based
[9] = system: Streptococcus; experiment: Group A Streptococcus viability loss, dose response, counter-screen for streptokinase expression inhibitor project, luminescence, BacTiterGlo (AID 1915); assay type: functional, organism-based;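 further: potency for reduction of bacterial viability or growth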
[10] = molecular target: T1, Corticotropin-releasing factor receptor 2/Corticotropin-releasing factor-binding protein (Homo sapiens, UniProt P24387+Q13324); experiment: activators of CRF receptor 2 with binding protein – uHTS hits, confirmation (AID 602473); assay type: functional; details: read-out: EC50_Mean
T1 sequence (Q13324 whole entry): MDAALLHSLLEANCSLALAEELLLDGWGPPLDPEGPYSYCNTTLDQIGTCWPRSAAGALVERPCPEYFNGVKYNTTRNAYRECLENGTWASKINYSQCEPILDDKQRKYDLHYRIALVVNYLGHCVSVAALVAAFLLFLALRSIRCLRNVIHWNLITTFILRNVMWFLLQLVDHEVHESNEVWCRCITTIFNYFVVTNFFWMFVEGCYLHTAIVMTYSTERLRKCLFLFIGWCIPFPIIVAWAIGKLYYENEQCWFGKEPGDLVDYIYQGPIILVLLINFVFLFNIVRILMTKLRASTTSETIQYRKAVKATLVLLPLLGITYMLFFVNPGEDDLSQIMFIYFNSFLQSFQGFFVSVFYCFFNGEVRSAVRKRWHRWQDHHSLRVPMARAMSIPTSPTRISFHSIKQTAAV
T1 sequence (P24387 whole entry): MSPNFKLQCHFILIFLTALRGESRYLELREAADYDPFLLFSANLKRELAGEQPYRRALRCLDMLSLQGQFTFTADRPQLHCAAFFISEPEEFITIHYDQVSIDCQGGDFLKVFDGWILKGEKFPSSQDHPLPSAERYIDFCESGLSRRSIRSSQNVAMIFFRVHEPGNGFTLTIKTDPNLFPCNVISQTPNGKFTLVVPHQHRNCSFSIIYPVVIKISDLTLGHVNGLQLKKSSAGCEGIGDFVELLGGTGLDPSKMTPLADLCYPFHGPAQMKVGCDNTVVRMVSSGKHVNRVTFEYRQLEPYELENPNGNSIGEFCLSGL

Chain of Cytochrome P450 2C9 (P11712 whole entry): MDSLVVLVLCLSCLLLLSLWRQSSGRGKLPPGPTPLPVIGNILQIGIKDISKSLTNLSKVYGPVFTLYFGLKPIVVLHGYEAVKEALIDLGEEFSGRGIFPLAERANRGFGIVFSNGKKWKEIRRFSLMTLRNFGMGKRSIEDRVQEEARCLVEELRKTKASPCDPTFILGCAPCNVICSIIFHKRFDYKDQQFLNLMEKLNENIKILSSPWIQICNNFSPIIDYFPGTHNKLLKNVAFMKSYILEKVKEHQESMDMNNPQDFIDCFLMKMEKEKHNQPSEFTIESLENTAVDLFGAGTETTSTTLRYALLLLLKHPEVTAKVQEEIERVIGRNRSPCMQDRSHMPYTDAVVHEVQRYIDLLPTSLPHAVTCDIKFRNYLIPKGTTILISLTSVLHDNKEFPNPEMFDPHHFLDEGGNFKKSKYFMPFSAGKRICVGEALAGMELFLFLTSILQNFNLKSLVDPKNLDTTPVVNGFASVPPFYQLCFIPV
Chain of Cytochrome P450 3A4 (P08684 whole entry): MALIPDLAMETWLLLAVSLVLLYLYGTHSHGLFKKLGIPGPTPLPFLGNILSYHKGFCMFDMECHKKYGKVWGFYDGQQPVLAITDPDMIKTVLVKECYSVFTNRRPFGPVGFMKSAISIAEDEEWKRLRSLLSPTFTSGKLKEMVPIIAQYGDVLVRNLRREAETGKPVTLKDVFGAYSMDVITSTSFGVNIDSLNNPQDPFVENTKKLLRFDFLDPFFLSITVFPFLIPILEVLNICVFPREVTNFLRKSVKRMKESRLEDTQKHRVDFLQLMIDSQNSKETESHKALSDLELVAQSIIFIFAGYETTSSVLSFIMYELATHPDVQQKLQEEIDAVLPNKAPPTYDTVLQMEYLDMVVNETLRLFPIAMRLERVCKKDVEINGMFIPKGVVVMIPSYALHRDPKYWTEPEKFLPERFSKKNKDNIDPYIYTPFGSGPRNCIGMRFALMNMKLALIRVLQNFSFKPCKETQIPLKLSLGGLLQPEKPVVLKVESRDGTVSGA

| Compound | EC50 [1] | EC50 [2] | EC50 [3] | other results |
| --- | --- | --- | --- | --- |
| Nn1c(CSc2ccccn2)nc2ccccc2c1=O | 35.2 µM (active) | 23.3 µM (active) | 42.9 µM (active) |  |
| COc1ccc(C(=N)NOC(=O)c2c(-c3ccccc3Cl)noc2C)cc1OC |  |  |  | EC50 [4]: 10.7 µM (active); EC50 [5]: 1.49 µM (active) |
| CCOC(=O)c1c(NC(=O)CSc2nnc(-c3ccncc3)n2Cc2ccco2)sc(C)c1C |  |  |  | EC50 [4]: > 60 µM (not active); EC50 [5]: 2.9 µM (active) |
| O=C(CCOc1ccccc1)Nc1ccccc1 |  |  |  | AC50 [6]: 1 µM (inconclusive); AC50 [7]: 22.4 µM (inconclusive) |
| CC1=C(C#N)C(Nc2ccc(Cl)cn2)(C(F)(F)F)C(=O)N1 (stereo unspecified) |  |  |  | AC50 [7]: 15.8 µM (inconclusive) |
| O=C(CCN1C(=O)S/C(=C\C=C\c2ccccc2)C1=O)Nc1ccc(O)cc1 | 0.155 µM (active) | 8.5 µM (active) |  |  |
| CC(c1ccon1)N(C)Cc1c[nH]nc1-c1ccc(-c2ccccc2)cc1 (stereo unspecified) | 30.5 µM (active) | > 120 µM (not active) | > 120 µM (not active) |  |
| Cc1ccc(CN2C(=O)N/C(=C/c3cc(C)n(-c4ccccn4)c3C)C2=O)cc1 | 7.26 µM (active) | > 120 µM (not active) | 11.9 µM (active) |  |
| CCCCn1nc(C(=O)Nc2nc3c(s2)CCCC3)c2ccccc2c1=O |  |  |  | EC50 [4]: > 60 µM (inconclusive); EC50 [5]: 1.73 µM (active) |
| O=C(O)c1cc2c(cc1S(=O)(=O)O)[C@H]1[C@@H](C3[C@H]2[C@@]2(Cl)C(Cl)=C(Cl)[C@@]3(Cl)C2(Cl)Cl)[C@]2(Cl)C(Cl)=C(Cl)[C@]1(Cl)C2(Cl)Cl (stereo partly specified) |  |  |  | AC50 [7]: 3.16 µM (inconclusive) |
| COc1ccc(N=C(S)Nc2ncccc2C)c(OC)c1 |  |  |  | AC50 [6]: 20 µM (inconclusive); AC50 [7]: 39.8 µM (inconclusive) |
| COc1ccc(C(CNc2ccc(S(=O)(=O)N3CCCC3)cc2[N+](=O)[O-])N2CCCC2)cc1 (stereo unspecified) |  |  |  | EC50 [4]: 31.8 µM (active); EC50 [5]: 0.843 µM (active) |
| COc1cc(C=C(C#N)C#N)cc(O)c1O |  |  |  | AC50 [7]: 10 µM (inconclusive) |
| Nc1nonc1-c1noc(CCCN2C(=O)c3ccccc3C2=O)n1 | 12.1 µM (active) | 15.7 µM (active) | 12.9 µM (active) |  |
| S=C(NCc1ccco1)N1CCN(Cc2ccco2)CC1 |  |  |  | AC50 [6]: 14.1 µM (inconclusive) |
| COc1ccc(/C=C(\NC(=O)c2ccccc2)C(=O)N/N=C/c2ccncc2)cc1 |  |  |  | AC50 [6]: 12.6 µM (active) |
| COc1ccc(-c2c/c(=N/c3c(C)n(C)n(-c4ccccc4)c3=O)c3ccccc3o2)cc1 | 11.1 µM (active) | 2.02 µM (active) | 11.1 µM (active) |  |
| COc1ccc(-c2cc(-c3ccccc3)c(C#N)c(SCC(=O)Nc3ncc(C)s3)n2)cc1 |  |  |  | EC50 [4]: > 60 µM (inconclusive); EC50 [5]: > 60 µM (not active) |
| CCOC(=O)C1CCN(c2nnc(N3CCCC3=O)s2)CC1 | 6.58 µM (active) | 33 µM (active) | 3.42 µM (active) |  |
| C=CCN=C(S)N1CCN(c2ncc3c(=O)c(C(=O)O)cn(CC)c3n2)CC1 |  |  |  | AC50 [6]: 0.224 µM (inconclusive) |
| CN(C)c1ccc(-c2nccc(Nc3ccc(F)cc3)n2)cc1 |  |  |  | AC50 [6]: 0.631 µM (inconclusive) |
| Cc1cccc2nc(-c3ccccc3)nc(N3CCC(O)(c4ccc(Cl)cc4)CC3)c12 |  |  |  | EC50 [4]: > 60 µM (not active); EC50 [5]: 0.301 µM (active) |
| C/C(=N\NC(=S)Nc1cccc(C)c1)c1ccco1 |  |  |  | EC50 [4]: > 60 µM (not active); EC50 [5]: 2.8 µM (active) |
| O=C(c1c[nH]cc1-c1ccccc1)c1cccc2ccccc12 |  |  |  | EC50 [4]: 4.49 µM (active); EC50 [5]: 1.93 µM (active) |
| CC1(C)CC(=O)c2cc(NC=C(C(=O)c3ccccc3)C(=O)c3ccccc3)c(=O)oc2C1 | > 60 µM (not active) | > 120 µM (not active) | 15.6 µM (active) |  |
| Sc1ncnc2scc(-c3ccc(Cl)cc3)c12 |  |  |  | EC50 [8]: 13.1 µM (active); EC50 [9]: 47.4 µM (active) |

| Compound | EC50 [1] | EC50 [2] | EC50 [3] | other results |
| --- | --- | --- | --- | --- |
| Cc1nc(S(=O)(=O)N(C)c2ccccc2)c(C#N)c(C)c1Cl |  |  |  | AC50 [6]: 17.8 µM (inconclusive) |
| CC1CCC(=C(C#N)c2nc(-c3cc4ccccc4oc3=O)cs2)CC1 (stereo unspecified) | 0.106 µM (active) |  |  |  |
| O=C(COc1ccc(F)cc1)N(Cc1cccs1)C1CCS(=O)(=O)C1 (stereo unspecified) |  |  |  | EC50 [10]: > 53 µM (inactive) |
| COC(=O)c1ccc(-c2ccc(/C=N/N3C(=O)C4C5C=CC(CC5)C4C3=O)o2)cc1 (stereo unspecified) | 19.5 µM (active) | 18.9 µM (active) | 6.71 µM (active) |  |
| COC(=O)c1ccc(N2OC3(C)C=CC2CC3)cc1 (stereo unspecified) | 5.16 µM (active) | 13.5 µM (active) | 9.96 µM (active) |  |
| CC1CCN(CC(=O)Nc2cccc([N+](=O)[O-])c2)CC1 |  |  |  | AC50 [6]: 15.8 µM (inconclusive) |
| Cc1ccc(OCCn2cnc3ccccc3c2=O)c([N+](=O)[O-])c1 | 2.44 µM (active) |  | 0.247 µM (active) |  |
| COc1cc(/C=C/C(=O)OCC(=O)c2c(N)n(C)c(=O)n(C)c2=O)ccc1OCC#N |  |  |  | EC50 [8]: 7.23 µM (active); EC50 [9]: 4.1 µM (active) |
| Cc1ncc(CC(=O)n2cc(C(=O)c3cc(Cl)ccc3O)cn2)s1 | > 120 µM (not active) | 40.2 µM (active) | 16.5 µM (active) |  |
| Cc1ccc(N2CCN(c3ccc(C)cc3)C2c2cccnc2)cc1 |  |  |  | EC50 [4]: > 60 µM (not active); EC50 [5]: 0.768 µM (active) |
| Cc1ccc(S(=O)(=O)Nc2ccc(N3CCN(C)CC3)nc2)cc1 |  |  |  | EC50 [4]: > 60 µM (not active); EC50 [5]: 1.26 µM (active) |
| CCc1nnc(NC(=O)/C=C/c2ccco2)s1 | 54.5 µM (active) | 6.44 µM (active) | 13.7 µM (active) |  |
| CCOC(=O)Cc1cc(-c2ccc(OC)cc2)nc2ccc3ccccc3c12 | 12.6 µM (active) | 15.6 µM (active) | 9.64 µM (active) |  |
| Cc1cccc(CCN2CCN=C2Nc2ccccc2)c1 |  |  |  | EC50 [10]: 14 µM (active) |
| Cc1nn(C(C)C(=O)N2CCc3ccccc32)c(C)c1[N+](=O)[O-] (stereo unspecified) |  |  |  | AC50 [7]: 17.8 µM (inconclusive) |
| O=C(Nc1ccc2c(c1)OCO2)N1CCN(c2ccccc2)CC1 | 16.2 µM (active) | 10.3 µM (active) | > 120 µM (not active) |  |
| CCN(CC)c1nc(C=Cc2ccc(N(C)C)cc2)c2nccnc2n1 |  |  |  | EC50 [10]: 2.56 µM (active) |
| CC1CNC(=Nc2cccc3ccccc23)S1 (stereo unspecified) |  |  |  | AC50 [6]: 14.1 µM (inconclusive); AC50 [7]: 15.8 µM (inconclusive) |
| CC(C)CC(=O)Nc1ccc(C(=O)COC(=O)Cc2n[nH]c(=O)c3ccccc23)cc1 |  |  |  | EC50 [10]: 12.4 µM (active) |
| CN(CCNC(=O)C1CC(=O)N(c2ccc(F)c(Cl)c2)C1)Cc1ccccc1 (stereo unspecified) |  |  |  | EC50 [4]: > 60 µM (not active); EC50 [5]: 0.22 µM (active) |
| CS(=O)(=O)N(Cc1ccccc1)c1ccc(C(=O)N2CCOCC2)cc1 |  |  |  | EC50 [10]: > 53 µM (inactive) |
| CC(=N)/C(C#N)=C(/O)CSc1nnc(Nc2cccc(C)c2)s1 | 45.1 µM (active) | > 120 µM (not active) | 10.1 µM (active) |  |
| COc1ccc2nc(N3CCN(C(=O)C4COc5ccccc5O4)CC3)sc2c1 (stereo unspecified) | 30.7 µM (active) | 12.8 µM (active) | 4.45 µM (active) |  |
| O=C(Nc1ccc2c[nH]nc2c1)c1ccc(Cl)c(S(=O)(=O)N2CCOCC2)c1 | 42.2 µM (active) | 27.6 µM (active) | 6.56 µM (active) |  |
| COc1ccc(C(=O)C2=C(O)C(=O)N(c3cc(C)on3)C2c2ccc(OC)c(OC)c2)cc1OC (stereo unspecified) |  |  |  | AC50 [7]: 22.4 µM (inconclusive) |
